Results: US20240279207A1, “SUBSTITUTED ACYL SULFONAMIDES FOR TREATING CANCER” (The Broad Institute, Inc., priority 2020, published 2024)

Columns and labels:
[1] = tested on: ESR1 transcription in MVLN cells; experiment: MVLN reporter assay: repression of ESR1 transcription (luciferase signal); assay type: cell-based; conditions: Homo sapiens, MVLN, 24 h, luciferase signal after 24 h, read-out: MVLN reporter assay, IC50 [M] (arithmetic mean)
Outline: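 MVLN cells, expressing ER and stably carrying a vitellogenin A2 ERE-luciferase reporter, treated with compound in duplicate; luciferase read after 24 h with Steadylite plus. Cell density checked in parallel by Alamar Blue fluorescence (530/590 nm, 2 h) before the luciferase read.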

[2] = biological target: T1, Recombinant human His-tagged Kat6a protein (amino acids 194-810) (Homo sapiens, UniProt Q92794); experiment: Kat6a activity assay (TR-FRET, acetylation of Histone-H4-derived peptide); assay type: biochemical; conditions: 60 mins at 22° C., 220 nM H4 peptide, 600 nM Acetyl Coenzyme A, read-out: KAT6A - DPF/HAT domain IC50 [mol/l] (arithmetic mean)
T1 construct: Kat6a protein (amino acids 194-810); His
T1 sequence (Q92794 194-810): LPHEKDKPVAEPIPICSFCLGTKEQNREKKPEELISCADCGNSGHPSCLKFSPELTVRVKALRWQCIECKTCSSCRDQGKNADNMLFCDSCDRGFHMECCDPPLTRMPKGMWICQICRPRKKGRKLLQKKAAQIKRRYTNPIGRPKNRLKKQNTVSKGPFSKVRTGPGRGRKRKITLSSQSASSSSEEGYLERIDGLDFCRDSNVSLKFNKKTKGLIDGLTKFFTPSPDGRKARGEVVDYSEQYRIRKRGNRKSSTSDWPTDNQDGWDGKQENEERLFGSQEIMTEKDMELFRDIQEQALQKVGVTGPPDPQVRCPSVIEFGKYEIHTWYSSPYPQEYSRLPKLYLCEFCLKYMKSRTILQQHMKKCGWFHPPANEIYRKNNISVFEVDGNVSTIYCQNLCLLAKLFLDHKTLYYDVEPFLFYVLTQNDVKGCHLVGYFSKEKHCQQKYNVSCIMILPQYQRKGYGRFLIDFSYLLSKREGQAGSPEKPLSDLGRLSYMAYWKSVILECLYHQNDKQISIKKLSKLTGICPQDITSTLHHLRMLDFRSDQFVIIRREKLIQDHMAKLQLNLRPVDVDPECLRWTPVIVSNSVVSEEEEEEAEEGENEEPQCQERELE

For `O=C(NS(=O)(=O)c1c(F)cccc1C1CCC1)c1cc2c(F)cc(N3CCC3)cc2o1` [Example 24, 6-(Azetidin-1-yl)-N-(2-cyclobutyl-6-fluorobenzene-1-sulfonyl)-4-fluoro-1-benzofuran-2-carboxamide], the IC50 [1] was 3e-07 M and the IC50 [2] was 46.7 nM.

`CCS(=O)(=O)c1ccccc1S(=O)(=O)NC(=O)c1cc2c(F)cc(N3CCC3)cc2o1` [Example 77, 6-(Azetidin-1-yl)-N-[2-(ethanesulfonyl)benzene-1-sulfonyl]-4-fluoro-1-benzofuran-2-carboxamide] gave an IC50 [1] of 3.45e-06 M and an IC50 [2] of 207 nM.

`CCOc1ccccc1S(=O)(=O)NC(=O)c1cc2ccc(N3CC(C(F)(F)F)C3)cc2o1` [Example 117, N-(2-Ethoxybenzene-1-sulfonyl)-6-[3-(trifluoromethyl)azetidin-1-yl]-1-benzofuran-2-carboxamide] was tested, and the IC50 [1] was 1.73e-05 M and the IC50 [2] was 12900 nM.

`CCc1ccc(C)c(S(=O)(=O)NC(=O)c2cc3c(F)cc(N4CCC4)cc3o2)c1` [Example 34, 6-(Azetidin-1-yl)-N-(5-ethyl-2-methylbenzene-1-sulfonyl)-4-fluoro-1-benzofuran-2-carboxamide] was tested, and the IC50 [1] was 5.79e-07 M and the IC50 [2] was 59.6 nM.

Compound `Cc1ccc2c(S(=O)(=O)NC(=O)c3cc4c(F)cc(N5CCC5)cc4o3)nn(C)c2n1` [Example 145, 6-(Azetidin-1-yl)-N-(1,6-dimethyl-1H-pyrazolo[3,4-b]pyridine-3-sulfonyl)-4-fluoro-1-benzofuran-2-carboxamide] has an IC50 [1] of 8.4e-06 M and an IC50 [2] of 402 nM.

Work on `O=C(NS(=O)(=O)c1ccccc1C(Cl)Cl)c1cc2c(F)cc(N3CC(F)C3)cc2o1` [Example 114, N-[2-(dichloromethyl)benzene-1-sulfonyl]-4-fluoro-6-(3-fluoroazetidin-1-yl)-1-benzofuran-2-carboxamide] yielded an IC50 [1] greater than 2e-05 M and an IC50 [2] of 406 nM.

Work on `CC(C)Oc1ccc(Br)cc1S(=O)(=O)NC(=O)c1cc2c(F)cc(N3CCC3)cc2o1` [Example 170, 6-(azetidin-1-yl)-N-{5-bromo-2-[(propan-2-yl)oxy]benzene-1-sulfonyl}-4-fluoro-1-benzofuran-2-carboxamide] yielded an IC50 [1] of 1.33e-07 M and an IC50 [2] of 10.5 nM.

`COc1ccc(-c2cccc(F)c2)cc1S(=O)(=O)NC(=O)c1cc2c(F)cc(N3CCC3)cc2o1` [Example 198, 6-(Azetidin-1-yl)-4-fluoro-N-(3′-fluoro-4-methoxy[1,1′-biphenyl]-3-sulfonyl)-1-benzofuran-2-carboxamide] showed an IC50 [1] of 2.95e-07 M and an IC50 [2] of 11.6 nM.

`CSc1nc2ccccn2c1S(=O)(=O)NC(=O)c1cc2c(F)cc(N3CCC3)cc2o1` [Example 149, 6-(Azetidin-1-yl)-4-fluoro-N-[2-(methylsulfanyl)imidazo[1,2-a]pyridine-3-sulfonyl]-1-benzofuran-2-carboxamide] was tested, and the IC50 [1] was 3.66e-06 M and the IC50 [2] was 261 nM.

`Cc1cccc(O)c1S(=O)(=O)NC(=O)c1cc2c(F)cc(N3CCC3)cc2o1` [Example 64, 6-(Azetidin-1-yl)-4-fluoro-N-(2-hydroxy-6-methylbenzene-1-sulfonyl)-1-benzofuran-2-carboxamide] was tested, and the IC50 [1] was 8e-06 M and the IC50 [2] was 85.1 nM.

`CCSc1nc2ccccn2c1S(=O)(=O)NC(=O)c1cc2c(F)cc(N3CCC3)cc2o1` [Example 148, 6-(Azetidin-1-yl)-N-[2-(ethylsulfanyl)imidazo[1,2-a]pyridine-3-sulfonyl]-4-fluoro-1-benzofuran-2-carboxamide] gave an IC50 [1] of 3.14e-06 M and an IC50 [2] of 274 nM.

For `COc1ccc(Br)cc1S(=O)(=O)NC(=O)c1cc2c(F)cc(N3CCC3)cc2o1` [Example 139, 6-(azetidin-1-yl)-N-(5-bromo-2-methoxybenzene-1-sulfonyl)-4-fluoro-1-benzofuran-2-carboxamide], the IC50 [1] was 2.36e-07 M and the IC50 [2] was 41.3 nM.

Work on `Cc1cc(Nc2ccccc2S(=O)(=O)NC(=O)c2cc3c(F)cc(N4CCC4)cc3o2)n(-c2ccccc2)n1` [Example 70, 6-(Azetidin-1-yl)-4-fluoro-N-{2-[(3-methyl-1-phenyl-1H-pyrazol-5-yl)amino]benzene-1-sulfonyl}-1-benzofuran-2-carboxamide] yielded an IC50 [1] of 1.58e-05 M and an IC50 [2] of 494 nM.

In the case of `Cc1cnc(Cl)c(S(=O)(=O)NC(=O)c2cc3c(F)cc(N4CCC4)cc3o2)c1` [Example 60, 6-(Azetidin-1-yl)-N-(2-chloro-5-methylpyridine-3-sulfonyl)-4-fluoro-1-benzofuran-2-carboxamide], the IC50 [1] is reported as 5.29e-06 M and the IC50 [2] is reported as 476 nM.

For `CC1Cc2cccc(S(=O)(=O)NC(=O)c3cc4c(F)cc(N5CCC5)cc4o3)c2O1` (stereo not shown) [Example 18, 6-(Azetidin-1-yl)-4-fluoro-N-[2-methyl-2,3-dihydro-1-benzofuran-7-sulfonyl]-1-benzofuran-2-carboxamide], the IC50 [1] was 1.92e-07 M and the IC50 [2] was 24.2 nM.

Work on `CN(C)c1ccc(Cl)c(S(=O)(=O)NC(=O)c2cc3c(F)cc(N4CCC4)cc3o2)c1` [Example 97, 6-(Azetidin-1-yl)-N-[2-chloro-5-(dimethylamino)benzene-1-sulfonyl]-4-fluoro-1-benzofuran-2-carboxamide] yielded an IC50 [1] greater than 2e-05 M and an IC50 [2] of 14000 nM.

Compound `O=C(NS(=O)(=O)c1ccccc1CCC(F)(F)F)c1cc2c(F)cc(N3CCC3)cc2o1` [Example 52, 6-(Azetidin-1-yl)-4-fluoro-N-[2-(3,3,3-trifluoropropyl)benzene-1-sulfonyl]-1-benzofuran-2-carboxamide] has an IC50 [1] of 1.55e-06 M and an IC50 [2] of 101 nM.

`O=C(NS(=O)(=O)c1cc(Br)cc2c1OCC2)c1cc2c(F)cc(N3CCC3)cc2o1` [Example 177, 6-(Azetidin-1-yl)-N-(5-bromo-2,3-dihydro-1-benzofuran-7-sulfonyl)-4-fluoro-1-benzofuran-2-carboxamide] was tested, and the IC50 [1] was 2.24e-07 M and the IC50 [2] was 21.4 nM.

For `COc1ccc(C2=CCN(C)CC2)cc1S(=O)(=O)NC(=O)c1cc2c(F)cc(N3CCC3)cc2o1` [Example 203, 6-(Azetidin-1-yl)-4-fluoro-N-[2-methoxy-5-(1-methyl-1,2,3,6-tetrahydropyridin-4-yl)benzene-1-sulfonyl]-1-benzofuran-2-carboxamide], the IC50 [1] was 3.78e-06 M and the IC50 [2] was 156 nM.

`COc1cc(C)ccc1S(=O)(=O)NC(=O)c1cc2c(F)cc(N3CC(F)C3)cc2o1` [Example 158, 4-Fluoro-6-(3-fluoroazetidin-1-yl)-N-(2-methoxy-4-methylbenzene-1-sulfonyl)-1-benzofuran-2-carboxamide] showed an IC50 [1] of 1.05e-07 M and an IC50 [2] of 25.7 nM.

`O=C(NS(=O)(=O)c1cccc2nccnc12)c1cc2c(F)cc(N3CCC3)cc2o1` [Example 56, 6-(Azetidin-1-yl)-4-fluoro-N-(quinoxaline-5-sulfonyl)-1-benzofuran-2-carboxamide] showed an IC50 [1] of 2.11e-06 M and an IC50 [2] of 122 nM.

With `CC(C)N(C)c1cc(F)c(S(=O)(=O)NC(=O)c2cc3c(F)cc(N4CC(F)C4)cc3o2)c(F)c1` [Example 164, N-{2,6-difluoro-4-[methyl(propan-2-yl)amino]benzene-1-sulfonyl}-4-fluoro-6-(3-fluoroazetidin-1-yl)-1-benzofuran-2-carboxamide] the IC50 [1] was 2.34e-06 M and the IC50 [2] was 251 nM.

`Cn1ccc2cccc(S(=O)(=O)NC(=O)c3cc4c(F)cc(N5CCC5)cc4o3)c21` [Example 41, 6-(Azetidin-1-yl)-4-fluoro-N-(1-methyl-1H-indole-7-sulfonyl)-1-benzofuran-2-carboxamide] gave an IC50 [1] of 8.57e-07 M and an IC50 [2] of 90.1 nM.
